Measured values: patent US20260285853A1, “COMPOUNDS AND METHODS FOR MODULATING SPLICING” (REMIX THERAPEUTICS INC., priority 2023, published 2026)
Counter-ions that a name gives are not always drawn. Like-named read-outs stand apart in the source and are kept apart here.

What was measured:
Assay type in all cases: cell-based
MYB mRNA [1] = assay: Splicing RT-qPCR assay (THP), Table 2A
MYB mRNA [2] = assay: Gene panel canonical junction qPCR assay, decrease in CJ mRNA, Table 3
In short: (§1)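 IC50 is the concentration giving 50% response in decrease of the canonical junction transcript, fitted with a 4-parameter logistic equation. Transcripts were quantified by RT-qPCR in A673 or K562 cells after 24 h exposure to compounds dosed up to 10 uM in 3-fold steps.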

HTT mRNA [3] = assay: as above
In short: as §1

HTT mRNA [4] = assay: Splicing RT-qPCR assay (THP), Table 2A
[5] = tested on: SH-SY5Y (human neuroblastoma) cells; assay: Cell viability, Cell Titer Glo 2.0 assay; details: read-out: Viability SHSY5Y.3 GI50
In short: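 Steps: serial DMSO dilution of compound, 1:100 dilution into medium, addition to cells (0.1% DMSO final). Incubate 72 h at 37 °C, 5% CO2. Assay with CellTiter-Glo 2.0 reagent.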

[6] = Table 2A (THP), AJ mRNA increase, read-out: MYB AJ (increase in alternative junction mRNA, AC50)
[7] = Table 2A (THP), CJ mRNA decrease, read-out: MYB CJ (decrease in canonical junction mRNA, IC50)
[8] = decrease in canonical junction (CJ) mRNA, gene panel qPCR, Table 3
[9] = Table 2A (THP), AJ mRNA increase, read-out: HTT AJ (increase in alternative junction mRNA, AC50)
[10] = Table 2A (THP), CJ mRNA decrease, read-out: HTT CJ (decrease in canonical junction mRNA, IC50)
[11] = Table 2A, THP, MYB alternative junction (AJ) mRNA, read-out: MYB AJ (AC50, increase in alternative junction mRNA)
[12] = Table 2A, THP, MYB canonical junction (CJ) mRNA, read-out: MYB CJ (IC50, decrease in canonical junction mRNA)
[13] = decrease in CJ mRNA levels, canonical junction qPCR, gene panel
[14] = Table 2A, THP, HTT alternative junction (AJ) mRNA, read-out: HTT AJ (AC50, increase in alternative junction mRNA)
[15] = Table 2A, THP, HTT canonical junction (CJ) mRNA, read-out: HTT CJ (IC50, decrease in canonical junction mRNA)

Row | SMILES | IC50 (MYB mRNA [1]; [7]) | IC50 (MYB mRNA [2]; [8]) | IC50 (HTT mRNA [3]; [8]) | IC50 (HTT mRNA [4]; [10]) | GI50 [5] | IC50 (MYB mRNA [1]; [12]) | IC50 (MYB mRNA [2]; [13]) | IC50 (HTT mRNA [3]; [13]) | IC50 (HTT mRNA [4]; [15]) | AC50 (MYB mRNA [1]; [6]) | AC50 (HTT mRNA [4]; [9]) | AC50 (MYB mRNA [1]; [11]) | AC50 (HTT mRNA [4]; [14])
1 | CCNC1CCN(c2ccc(C(=O)Nc3cn4cc(C)nc4cc3OC)c3nn(C)cc23)CC1 [Compound 323, 4-[4-(ethylamino)-1-piperidyl]-N-(7-methoxy-2-methyl-imidazo[1,2-a]-pyridin-6-yl)-2-methyl-indazole-7-carboxamide 2,2,2-trifluoroacetate] | 0.1 to 1 µM | 0.1 to 1 µM | 1 to 10 µM | 1 to 10 µM | 1 to 10 µM | – | – | – | – | 0.1 to 1 µM | 1 to 10 µM | – | –
2 | CNC1CCCC(Oc2ccc(C(=O)Nc3cc4cn(C)nc4cc3OC)c3nn(C)cc23)C1 (stereo not drawn) [Compound 596] | 1 to 10 µM | 1 to 10 µM | 1 to 10 µM | 1 to 10 µM | 1 to 10 µM | – | – | – | – | 1 to 10 µM | 1 to 10 µM | – | –
3 | Cc1nc(C)c2nc(NC(=O)c3ccc(N4CCC(NC5CC5)CC4)c4cn(C)nc34)cn2c1C [Compound 495, 4-[4-(cyclopropyl-amino)-1-piperidyl]-2-meth-yl-N-(5,6,8-trimethylimi-dazo-[1,2-a]pyrazin-2-yl)-indazole-7-carboxamide] | 0.1 to 1 µM | 0.1 to 1 µM | 0.1 to 1 µM | 0.1 to 1 µM | 0.1 to 1 µM | – | – | – | – | 0.1 to 1 µM | 0.1 to 1 µM | – | –
4 | Cn1cc2cc(NC(=O)c3ccc(N4CCC(NC5CC5)CC4)c4cn(C)nc34)cc(CN3CCCS3(=O)=O)c2n1 [Compound 818, 4-(4-(cyclopropylamino)piperidin-1-yl)-N-(7-((1,1-dioxidoisothiazolidin-2-yl)methyl)-2-methyl-2H-indazol-5-yl)-2-methyl-2H-indazole-7-carboxamide hydrochloride] | – | – | – | – | > 10 µM | > 10 µM | > 10 µM | > 10 µM | > 10 µM | – | – | > 10 µM | > 10 µM
5 | Cn1cc2cc(NC(=O)c3c(O)cc(N4CCC(NC5CC5)CC4)c4cn(C)nc34)cc(CNS(C)(=O)=O)c2n1 [Compound 852] | – | – | – | – | 1 to 10 µM | 0.1 to 1 µM | 0.1 to 1 µM | > 10 µM | > 10 µM | – | – | 0.1 to 1 µM | 1 to 10 µM
6 | Cc1cn2cc(NC(=O)c3ccc(N4CC5(CCNCC5)C4)c4cn(C)nc34)nc2c(C)n1 [Compound 562] | > 10 µM | > 10 µM | > 10 µM | > 10 µM | > 10 µM | – | – | – | – | > 10 µM | > 10 µM | – | –
7 | CNC1CCN(c2ccc(C(=O)Nc3cc4cn(C)nc4cc3OC)c3nn(C)cc23)C1 (stereo not drawn) [Compound 518] | 0.1 to 1 µM | 0.1 to 1 µM | 1 to 10 µM | 1 to 10 µM | 1 to 10 µM | – | – | – | – | < 0.1 µM | 1 to 10 µM | – | –
8 | Cc1cn2cc(NC(=O)c3ccc(N4CCC(NC5CC5)CC4)c4cn(C)nc34)nc2c(CCN(C)C)n1 [Compound 776] | – | – | – | – | 1 to 10 µM | > 10 µM | > 10 µM | > 10 µM | > 10 µM | – | – | > 10 µM | > 10 µM
9 | Cc1cn2cc(NC(=O)c3ccc(N4CCC(NC5CC5)CC4)c4cn(C)nc34)nc2c(CNC(=N)N)n1 [Compound 754, 4-(4-(cyclopropylamino)piperidin-1-yl)-N-(8-(guanidinomethyl)-6-methylimidazo[1,2-a]pyrazin-2-yl)-2-methyl-2H-indazole-7-carboxamide bis(2,2,2-trifluoroacetate)] | – | – | – | – | > 10 µM | > 10 µM | > 10 µM | > 10 µM | > 10 µM | – | – | > 10 µM | > 10 µM
10 | Cc1cn2cc(NC(=O)c3ccc(N4CCC(N(C)C)CC4)c4cn(C)nc34)nc2c(CNS(C)(=O)=O)n1 [Compound 851] | – | – | – | – | > 10 µM | > 10 µM | > 10 µM | > 10 µM | > 10 µM | – | – | > 10 µM | > 10 µM
11 | CCNC1CCN(c2ccc(C(=O)Nc3cc(Oc4cccc(Cl)c4)c4nc(C)cn4c3)c3nn(C)cc23)CC1 [Compound 314, N-[8-(3-chlorophenoxy)-2-methylimidazo-[1,2-a]pyridin-6-yl]-4-[4-(ethylamino)-1-piperidyl]-2-methyl-indazole-7-carboxamide] | 0.1 to 1 µM | 0.1 to 1 µM | 1 to 10 µM | 1 to 10 µM | 0.1 to 1 µM | – | – | – | – | < 0.1 µM | 1 to 10 µM | – | –
12 | CCNC1CCN(c2cc(F)c(C(=O)Nc3cn4ccnc(C)c4n3)c3nn(C)cc23)CC1 [Compound 384, 4-[4-(ethylamino)-1-piperidyl]-6-fluoro-2-methyl-N-(8-methyl-imidazo[1,2-a]-pyrazin-2-yl)-indazole-7-carbox-amide] | > 10 µM | > 10 µM | > 10 µM | > 10 µM | > 10 µM | – | – | – | – | > 10 µM | > 10 µM | – | –
13 | COc1nc2c(C(=O)Nc3ccc4nn(C)cc4c3)ccc(N3C[C@H](C)N[C@@H](C)C3)c2s1 [Compound 800, 7-[(3S,5S)-3,5-dimethylpiperazin-1-yl]-2-methoxy-N-(2-methylindazol-5-yl)-1,3-benzothiazole-4-carboxamide] | – | – | – | – | < 0.1 µM | < 0.1 µM | < 0.1 µM | 0.1 to 1 µM | 0.1 to 1 µM | – | – | < 0.1 µM | 0.1 to 1 µM
14 | Cc1cn2cc(NC(=O)c3ccc(N4CCNC(C)C4)c4cn(C)nc34)nc2c(C)n1 (stereo not drawn) [Compound 557] | 0.1 to 1 µM | 0.1 to 1 µM | > 10 µM | > 10 µM | 1 to 10 µM | – | – | – | – | 0.1 to 1 µM | > 10 µM | – | –

More lines, main results first:

Row | IC50 (MYB mRNA [1]; [7]) | IC50 (MYB mRNA [2]; [8]) | IC50 (HTT mRNA [3]; [8]) | IC50 (HTT mRNA [4]; [10]) | GI50 [5] | IC50 (MYB mRNA [1]; [12]) | IC50 (MYB mRNA [2]; [13]) | IC50 (HTT mRNA [3]; [13]) | IC50 (HTT mRNA [4]; [15]) | SMILES | AC50 (MYB mRNA [1]; [6]) | AC50 (HTT mRNA [4]; [9]) | AC50 (MYB mRNA [1]; [11]) | AC50 (HTT mRNA [4]; [14])
15 | 0.1 to 1 µM | 0.1 to 1 µM | > 10 µM | > 10 µM | 1 to 10 µM | – | – | – | – | COc1cn2nc(C)cc2cc1NC(=O)c1ccc(N2CCC(NC3CC3)CC2)c2cn(C)nc12 [Compound 475, 4-[4-(cyclopropylamino)-1-piperidyl]-N-(6-methoxy-2-methyl-pyrazolo[1,5-a]pyridin-5-yl)-2-methyl-indazole-7-carboxamide] | 0.1 to 1 µM | > 10 µM | – | –
16 | – | – | – | – | 1 to 10 µM | > 10 µM | > 10 µM | > 10 µM | > 10 µM | Cn1cc2cc(NC(=O)c3cc(F)c(N4CCC(NC5CC5)CC4)c4cn(C)nc34)cc(F)c2n1 [Compound 708, 4-[4-(cyclopropylamino)-1-piperidyl]-5-fluoro-N-(7-fluoro-2-methyl-indazol-5-yl)-2-methyl-indazole-7-carboxamide] | – | – | 1 to 10 µM | > 10 µM
17 | > 10 µM | > 10 µM | > 10 µM | > 10 µM | > 10 µM | – | – | – | – | COc1cc2nn(C)cc2c(Cl)c1NC(=O)c1c(F)cc(N2CCC(NC3CC3)CC2)c2cn(C)nc12 [Compound 445, N-(4-chloro-6-methoxy-2-methyl-indazol-5-yl)-4-[4-(cyclopropylamino)-1-piperidyl]-6-fluoro-2-methyl-indazole-7-carboxamide 2,2,2-trifluoroacetate] | > 10 µM | > 10 µM | – | –
18 | < 0.1 µM | < 0.1 µM | 0.1 to 1 µM | 0.1 to 1 µM | < 0.1 µM | – | – | – | – | COc1c(NC(=O)c2c(F)cc(N3CCC(NC4CC4)CC3)c3cn(C)nc23)cc2cn(C)nc2c1F [Compound 405, 4-[4-(cyclopropylamino)-1-piperidyl]-6-fluoro-N-(7-fluoro-6-methoxy-2-methyl-indazol-5-yl)-2-methyl-indazole-7-carboxamide] | < 0.1 µM | 0.1 to 1 µM | – | –
19 | > 10 µM | > 10 µM | > 10 µM | > 10 µM | > 10 µM | – | – | – | – | Cc1cn2cc(NC(=O)c3c(F)cc(N4CCC(NC5CC5)CC4)c4cn(C)nc34)nc(-n3ccccc3=O)c2n1 [Compound 427, 4-[4-(cyclopropylamino)-1-piperidyl]-6-fluoro-2-methyl-N-[2-methyl-8-(2-oxo-1-pyridyl)-imidazo[1,2-a]-pyrazin-6-yl]-indazole-7-carboxamide] | 1 to 10 µM | > 10 µM | – | –
20 | – | – | – | – | > 10 µM | > 10 µM | > 10 µM | > 10 µM | > 10 µM | Cc1c2cc(NC(=O)c3ccc(N4CCC(NC5CC5)CC4)c4cn(C)nc34)cc(CNS(C)(=O)=O)c2nn1C [Compound 869] | – | – | > 10 µM | > 10 µM
21 | 1 to 10 µM | 1 to 10 µM | > 10 µM | > 10 µM | 0.1 to 1 µM | – | – | – | – | COc1cc2nn(C)c(C)c2cc1NC(=O)c1c(F)cc(N2CCC(NC3CC3)CC2)c2cn(C)nc12 [Compound 418, 4-[4-(cyclopropylamino)-1-piperidyl]-6-fluoro-N-(6-methoxy-2,3-dimethyl-indazol-5-yl)-2-methyl-indazole-7-carboxamide] | 0.1 to 1 µM | > 10 µM | – | –
